In brackets after ≈: the same amount, converted by molar mass.
Columns and labels:
[1] = tested on: TAC mice (heart failure with reduced EF); assay: Transverse aortic constriction (TAC) heart failure model, echocardiography; assay type: in vivo, mouse (C57BL/6J); details: 2.8 mg/kg i.p. once daily for 1 week, compared to DCA
Protocol: C57BL/6J mice were purchased from Japan SLC, Inc. (Hamamatsu, Japan) and Takasugi Experimental Animals Supply Co., Ltd. (Kasukabe, Japan), and were kept under a 12 h light–dark schedule. All animal handling procedures in this study complied with the Jichi Medical University Guide for Laboratory Animals and the ARRIVE guidelines. The Institutional Animal Care and Concern Committee at Jichi Medical University approved all experimental protocols. This study used 8-week-old male mice.
Mice were intubated prior to surgery and were maintained under assisted ventilation on a heating pad throughout the procedure. Under a microscope, a midline incision was made on the skin from the neckline to the mid-chest level. A partial thoracotomy was made through the second rib, and the sternum was retracted to aid visualization of the aorta. After periaortic tissue was removed, a 27-G blunt needle was placed in parallel along the transverse aorta, and the suture was tied over the needle between the innominate artery and the left common carotid. Then, the rib cage was closed, followed by closure of the skin. […] Mice were kept in a heating unit until they recovered completely from anesthesia.
At weeks 0, 4, and 5 after TAC induction, mice were anesthetized with 1.5% isoflurane and secured on an animal handling and physiological monitoring system in the supine position. Images were captured with a 30 MHz probe attached to a Vevo 2100 (VisualSonics, Toronto, ON, Canada). Heart rate was maintained at 400 to 500 bpm, and the temperature of the system was kept at 37 °C while echocardiographic images were captured. The ejection fraction was calculated using the Vevo2100 system based on the Teichholz method.
Four weeks after the TAC surgery, mice with an EF less than 55 were subjected to injection. Then, 2.8 mg/kg of compound 8 or DCA in 5% DMSO in saline or 5% DMSO in saline was injected peritoneally every day for 7 days.
(§1) With five synthesized Vitamin K3 derivatives, their in vitro PDK4 inhibitory activity and cytotoxicity were evaluated. In vitro activities were tested using fluorescently labeled PDH by measuring phosphorylated and unphosphorylated PDH of the derivatives using a CCD camera. For cytotoxicity, IC50 values were calculated by adding the derivatives to the human fibroblast culture medium and monitoring growth inhibition. Then, we evaluated the efficacy of novel PDK4 inhibitor candidates in the treatment of heart failure. The transverse aorta of wild-type mice was constricted to induce a pressure overload in the left ventricle, and the ejection fraction (EF) was postoperatively measured at 4 weeks. Subsequently, 2.8 mg/kg of each derivative was intraperitoneally administered to mice once daily for 1 week to evaluate improvement in EF values.

[2] = tested on: human fibroblast cells; assay: Cytotoxicity assay against human fibroblast cells (growth inhibition); assay type: cell-based; details: human fibroblasts, read-out: Toxicity (IC50), half-maximal inhibitory concentration to inhibit fibroblast growth
Protocol: Wild-type fibroblasts obtained from a volunteer expressing [F352F + V368V] (FV–FV alleles), purchased from RIKEN Cell Bank (Tsukuba, Japan), were used, and the cytotoxicity assay was carried out as described in the previous paper.
as §1

[3] = target: T1, Full-length human PDK4 (GST-fusion) (Homo sapiens, UniProt Q16654); assay: Off-chip mobility shift assay (MSA) for PDK4 inhibition; assay type: biochemical; details: at 10 µg/mL of each inhibitor; for inhibition at 10 µg/mL: read-out: PDK4 Inhibitory Activity (%)
T1 construct: GST (Glutathione S-transferase) (N); made in house; host or cells: E. coli
Protocol: Full-length human PDK4 [amino acids 1-411 of accession number NP_002603.1] was expressed as an N-terminal Glutathione S-transferase (GST)-fusion protein (73 kDa) using an E. coli expression system. GST-PDK4 was purified using glutathione affinity chromatography.
Derivatives were dissolved in dimethyl sulfoxide (DMSO) and further diluted in DMSO to prepare a solution with a 100-fold higher concentration than the test sample solution. This solution was further diluted 25-fold in assay buffer (20 mM 4-(2-hydroxyethyl)-1-piperazineethanesulfonic acid (HEPES), 0.01% Triton X-100, 2 mM dithiothreitol (DTT), pH 7.5) to make a test sample solution. The positive control substance solution was prepared the same way.
(1) 5µL of test sample solution, 5 µL of substrate/ATP/metal solution in assay buffer (20 mM HEPES, 0.01% Triton X-100, 2 mM DTT, pH 7.5), and 10 µL of kinase solution in assay buffer prepared in assay buffer were mixed in the wells of a 384-well polypropylene plate and allowed to react for 5 h at room temperature. (2) The reaction was stopped by adding 70 µL of Termination Buffer (QuickScout Screening Assist MSA; Carna Biosciences). (3) Substrate peptides and phosphorylated peptides in the reaction solution were separated and quantified using the LabChip system (Perkin Elmer, Shelton, CT, USA). (4) The product ratio (P/(P+S)) was calculated from the substrate peptide peak height (S) and the phosphorylated peptide peak height (P) of the kinase reaction.
The average signal in control wells containing all reaction components was considered to be 0% inhibition. The average signal in background wells (without enzyme) was considered as 100% inhibition, and the % inhibition was calculated from the average signal in each test sample well.

[4] = tested on: PDK4; design: method as in PMID 24865588; details: previous study; read-out: IC50 of PDK4 inhibition; cited from earlier work

T1 sequence (Q16654 whole entry, the tested form may be a part): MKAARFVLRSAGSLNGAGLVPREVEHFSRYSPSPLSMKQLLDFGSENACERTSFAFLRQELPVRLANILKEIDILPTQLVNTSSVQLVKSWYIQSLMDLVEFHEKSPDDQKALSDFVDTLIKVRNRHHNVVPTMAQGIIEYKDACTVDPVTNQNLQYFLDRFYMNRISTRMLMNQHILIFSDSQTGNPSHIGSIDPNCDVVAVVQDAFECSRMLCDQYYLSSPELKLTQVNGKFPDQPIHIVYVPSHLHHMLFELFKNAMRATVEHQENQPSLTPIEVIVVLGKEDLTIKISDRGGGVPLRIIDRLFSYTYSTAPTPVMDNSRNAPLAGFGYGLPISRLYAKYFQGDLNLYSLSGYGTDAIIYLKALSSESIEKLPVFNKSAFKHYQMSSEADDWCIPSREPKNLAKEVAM

For `COC(=O)c1ccc2c(c1)C(=O)C(C)=CC2=O` [Compound 5], the “Change in EF (EF5/EF4) after a week of daily injection” value (shortened to “Change in EF (EF5/EF4) after a week”) [1] was “improve”, the IC50 [2] was 8 µg/mL (≈ 34.7 µM) and the inhibition at 10 µg/mL [3] was 34.6%.

In the case of `COC(=O)c1ccc2c(c1)C(=O)C=C(C)C2=O` [Compound 11], the “Change in EF (EF5/EF4) after a week” value [1] is reported as “improve”, the IC50 [2] is reported as 7 µg/mL (≈ 30.4 µM) and the inhibition at 10 µg/mL [3] is reported as 65.4%.

With `CC1=CC(=O)c2cc(C(=O)NCC(=O)O)ccc2C1=O` [Compound 13a] the “Change in EF (EF5/EF4) after a week” value [1] was “improve”, the melting point was 163 to 163.2 °C and the IC50 [2] was > 110 µg/mL. The inhibition at 10 µg/mL [3] was 66.8%.

With `CC1=CC(=O)c2cc(C(=O)N[C@@H](CO)C(=O)O)ccc2C1=O` [Compound 13b] the “Change in EF (EF5/EF4) after a week” value [1] was “improve”, the melting point was 166.6 to 166.8 °C and the IC50 [2] was > 99 µg/mL. It also gave an inhibition at 10 µg/mL [3] of 63.2%.

For `O=C(O)C(Cl)Cl` [DCA, dichloroacetic acid], the IC50 [4] is given as 57.8 µM.

In the case of `CC1=CC(=O)c2ccccc2C1=O` [Vitamin K3, reference compound], the IC50 [2] is reported as 18 µg/mL (≈ 105 µM), the “PDK4 Inhibitory Activity (%)” value [3] is reported as 65.9% and the inhibition at 10 µg/mL [3] is reported as 66%.

— article PMC10777911, “A Potent PDK4 Inhibitor for Treatment of Heart Failure with Reduced Ejection Fraction” (Cells, 2023)
